Assay results from patent EP3502234B1, “ANAEROBIC AMMONIUM OXIDATION WITH PLANKTONIC CELLS IN A CONTINUOUS OR SEMI-CONTINUOUS STIRRED-TANK REACTOR” (priority 2017, dated 2019).
pIC50: −log10 of the molar value.

Experiments:
anammox activity = assay: Semi-CSTR reactor operation under critical conditions (pulse addition, reactor collapse); assay type: cell-based, "Ca. Kuenenia stuttgartiensis"; conditions: pulse of 0.2 mM Na2S added to the reactor
Procedure: The reactor effluent was collected in anoxic 2-liter bottles and stored in the dark at 4°C to be used later for inhibitor tests (see below) or as inoculum when the reactor collapsed. During one-year operation under experimental conditions, the reactor intentionally collapsed three times under three different critical conditions: 1) after the reactor was incubated for 24 h at 38.6°C without feeding nitrite, 2) after a pulse of 0.2 mM Na2S was added, and 3) after a pulse of 65 µM FeCl2 was added. […] After such reactor collapses, the reactor could be reproducibly regenerated with the stored eluent bottles. The activity in the effluent bottles was recovered, as judged from pressure production rates, within only 2 days when a bottle was warmed up to room temperature, spiked with 3 mM nitrite and incubated at 30°C. Effluent could be stored at 4°C for at least three months without startup delay.

[1] = test system: anammox activity of reactor effluent; assay: Incubations of reactor effluent with effectors; anammox activity from headspace gas production rate; assay type: cell-based, "Ca. Kuenenia stuttgartiensis"; conditions: for pIC50 / IC50: 30°C
Procedure: 60 mL nitrogen-flushed glass bottles were anoxically filled with 50 mL reactor effluent and closed with butyl rubber septa and aluminum crimp caps. Effectors were anoxically added with sterile syringes through the septa or directly added to the bottles as powder. Except for the experiment in which nitrite was varied, 3 mM nitrite was added at time 0. Each bottle was directly connected to a MPX5100DP pressure sensor via a 0.41 mm Luer Lock needle. All sensors were electrically connected to a LabJack converter for data reading and storage. Pressure sensors were read every 3 seconds. In total, twelve such bottles were set up for each experiment, allowing the simultaneous testing of five different effector concentrations in duplicate plus two bottles as negative controls without effector.
Experiments were incubated for 24 hours after which 3 mL air was injected into each bottle for calibration of the pressure sensor readings. Gas production rates were calculated as mL per day across 1,000 consecutive data points (3,000 seconds). […] The same time frame was chosen for all twelve bottles in one experiment to calculate anammox activities from the slopes.
For that the reactor effluent was incubated in closed bottles and monitored the pressure build-up in the headspace over time. […] Legend: the number before the dash indicates the chloramphenicol concentration in mg L^-1, the number behind the dash indicates the number of the replicate. (A) Gas production; (B) Gas production rate calculated in a window of 1,000 consecutive data points (equivalent to 3,000 seconds).

[2] = test system: "Ca. Kuenenia stuttgartiensis"; conditions: previous reports; cited from earlier work
[3] = test system: anammox activity of "Ca. Kuenenia stuttgartiensis "; conditions: 1 g L^-1 chloramphenicol; cited from earlier work
[4] = test system: anammox activity of "Ca. Kuenenia stuttgartiensis "; conditions: 20 mg L^-1 chloramphenicol, sequencing batch reactor, after 4 days; cited from earlier work
[5] = reactor effluent, gas production rate normalized to controls without effector

[Na+].[Na+].[S-2] [sulfide, Na2S]
effect on the reactor (anammox activity): complete loss of the anammox activity | pIC50 ([1]; reactor effluent, 3 mM nitrite): 5.30 | inhibition of anammox activity ([1]; sulfide at 5 µM): severely inhibited

[Cl-].[Na+] [NaCl]
inhibition ([1]; 270 mM salt): 75% | salt concentrations that start to inhibit anammox activity ([1]; reactor effluent): 120 to 270 mM | inhibition ([1]; salt concentrations up to 120 mM): No apparent inhibition

phosphate
anammox activity higher than in the controls at 1.5 mM ([1]; 6.5 mM phosphate): 11% | anammox activity preserved ([1]; highest tested concentration of 51.5 mM phosphate): 65% | increase of anammox activity ([1]; phosphate concentration increased from 1.5 mM to 3.5 mM): 16% | pIC50 [1, 5]: < 1.29

O=N[O-].[Na+] [nitrite, NaNO2]
tolerant to nitrite [2]: 13 to 25 mM | inhibition ([1]; nitrite at 6 mM): 24% | inhibition ([1]; nitrite at 6 mM, as worded in the discussion): severe inhibition | pIC50 [1, 5]: 2.02

O=C(N[C@H](CO)[C@H](O)c1ccc([N+](=O)[O-])cc1)C(Cl)Cl [chloramphenicol]
inhibition [3]: no apparent inhibition | drop in reactor efficiency [4]: 25% | drop in specific anammox activity [4]: 75% | inhibition at 30 µg/mL ([1]; chloramphenicol 30 mg L^-1): 57% | IC50 ([1]; reactor effluent, 3 mM nitrite): 19 µg/mL

CN(C)c1ccc2nc3ccc(=[N+](C)C)cc-3sc2c1 [methylene blue]
inhibition ([1]; 100 µg L^-1 methylene blue): 86% | inhibition of anammox activity ([1]; methylene blue 10 µg L^-1): no apparent inhibition | IC50 ([1]; reactor effluent, 3 mM nitrite): 0.053 µg/mL
